In brackets after ≈: the same amount, converted by molar mass.
Columns and labels:
Type in all cases: functional
Pseudomonas aeruginosa = experiment: Antibacterial activity against Pseudomonas aeruginosa
Escherichia coli = experiment: Antibacterial activity against Escherichia coli
Klebsiella pneumoniae = experiment: Antibacterial activity against Klebsiella pneumoniae
Enterococcus faecalis = experiment: Antibacterial activity against Streptococcus faecalis
Bacillus subtilis = experiment: Antibacterial activity against Bacillus subtilis
Cryptococcus neoformans = experiment: Antifungal activity against Cryptococcus neoformans
Candida [1] = experiment: Antifungal activity against Candida 6
Candida [2] = experiment: Antifungal activity against Candida 51
Aspergillus niger = experiment: Antifungal activity against Aspergillus niger
Aspergillus flavus = experiment: Antifungal activity against Aspergillus flavus

| MIC (Pseudomonas aeruginosa) | MIC (Escherichia coli) | MIC (Klebsiella pneumoniae) | MIC (Enterococcus faecalis) | MIC (Bacillus subtilis) | MIC (Cryptococcus neoformans) | MIC (Candida [1]) | MIC (Candida [2]) | MIC (Aspergillus niger) | MIC (Aspergillus flavus) | Compound |
| --- | --- | --- | --- | --- | --- | --- | --- | --- | --- | --- |
| 25 µg/mL (≈ 77.8 µM) | 12.5 µg/mL (≈ 38.9 µM) | 12.5 µg/mL (≈ 38.9 µM) | 12.5 µg/mL (≈ 38.9 µM) | 50 µg/mL (≈ 156 µM) | 25 µg/mL (≈ 77.8 µM) | 25 µg/mL (≈ 77.8 µM) | 25 µg/mL (≈ 77.8 µM) | 50 µg/mL (≈ 156 µM) | 50 µg/mL (≈ 156 µM) | O=C1CC(c2ccco2)NC(c2ccco2)C1Cc1ccccc1 (stereo not drawn) |
| 12.5 µg/mL (≈ 37.2 µM) | 12.5 µg/mL (≈ 37.2 µM) | 6.25 µg/mL (≈ 18.6 µM) | 12.5 µg/mL (≈ 37.2 µM) | 25 µg/mL (≈ 74.3 µM) | 6.25 µg/mL (≈ 18.6 µM) | 25 µg/mL (≈ 74.3 µM) | 12.5 µg/mL (≈ 37.2 µM) | 6.25 µg/mL (≈ 18.6 µM) | 25 µg/mL (≈ 74.3 µM) | O/N=C1\CC(c2ccco2)NC(c2ccco2)C1Cc1ccccc1 (stereo not drawn) |
|  | 12.5 µg/mL (≈ 36.6 µM) | 100 µg/mL (≈ 293 µM) | 50 µg/mL (≈ 146 µM) | 12.5 µg/mL (≈ 36.6 µM) |  | 50 µg/mL (≈ 146 µM) | 50 µg/mL (≈ 146 µM) | 100 µg/mL (≈ 293 µM) | 50 µg/mL (≈ 146 µM) | O=C1CC(c2ccccc2)NC(c2ccccc2)C1Cc1ccccc1 (stereo not drawn) |
| 25 µg/mL (≈ 70.1 µM) | 12.5 µg/mL (≈ 35.1 µM) | 12.5 µg/mL (≈ 35.1 µM) | 25 µg/mL (≈ 70.1 µM) | 25 µg/mL (≈ 70.1 µM) | 25 µg/mL (≈ 70.1 µM) | 50 µg/mL (≈ 140 µM) | 12.5 µg/mL (≈ 35.1 µM) | 100 µg/mL (≈ 281 µM) | 50 µg/mL (≈ 140 µM) | O/N=C1\CC(c2ccccc2)NC(c2ccccc2)C1Cc1ccccc1 (stereo not drawn) |
| 12.5 µg/mL (≈ 33.8 µM) | 25 µg/mL (≈ 67.7 µM) | 6.25 µg/mL (≈ 16.9 µM) | 25 µg/mL (≈ 67.7 µM) | 25 µg/mL (≈ 67.7 µM) | 12.5 µg/mL (≈ 33.8 µM) | 25 µg/mL (≈ 67.7 µM) | 12.5 µg/mL (≈ 33.8 µM) | 50 µg/mL (≈ 135 µM) | 25 µg/mL (≈ 67.7 µM) | O=CN1C(c2ccccc2)CC(=O)C(Cc2ccccc2)C1c1ccccc1 (stereo not drawn) |
| 50 µg/mL (≈ 130 µM) | 25 µg/mL (≈ 65 µM) | 6.25 µg/mL (≈ 16.3 µM) | 25 µg/mL (≈ 65 µM) | 25 µg/mL (≈ 65 µM) | 6.25 µg/mL (≈ 16.3 µM) | 12.5 µg/mL (≈ 32.5 µM) | 12.5 µg/mL (≈ 32.5 µM) | 25 µg/mL (≈ 65 µM) | 12.5 µg/mL (≈ 32.5 µM) | O=CN1C(c2ccccc2)C/C(=N\O)C(Cc2ccccc2)C1c1ccccc1 (stereo not drawn) |

| Compound | MIC (Pseudomonas aeruginosa) | MIC (Escherichia coli) | MIC (Klebsiella pneumoniae) | MIC (Enterococcus faecalis) | MIC (Bacillus subtilis) | MIC (Cryptococcus neoformans) | MIC (Candida [1]) | MIC (Candida [2]) | MIC (Aspergillus niger) | MIC (Aspergillus flavus) |
| --- | --- | --- | --- | --- | --- | --- | --- | --- | --- | --- |
| C[C@@H]1[C@H](O)[C@@H](C)/C=C/C=C/C=C/C=C/C=C/C=C/C=C/[C@H](O[C@@H]2O[C@H](C)[C@@H](O)[C@H](N)[C@@H]2O)C[C@@H]2O[C@](O)(C[C@@H](O)C[C@@H](O)[C@H](O)CC[C@@H](O)C[C@@H](O)CC(=O)O[C@H]1C)C[C@H](O)[C@H]2C(=O)O [AMPHOTERICIN B] |  |  |  |  |  | 25 µg/mL (≈ 27.1 µM) | 25 µg/mL (≈ 27.1 µM) | 25 µg/mL (≈ 27.1 µM) | 50 µg/mL (≈ 54.1 µM) | 50 µg/mL (≈ 54.1 µM) |
| CN[C@@H]1[C@H](O[C@H]2[C@H](O[C@H]3[C@H](O)[C@@H](O)[C@H](N=C(N)N)[C@@H](O)[C@@H]3N=C(N)N)O[C@@H](C)[C@]2(O)C=O)O[C@@H](CO)[C@H](O)[C@H]1O [STREPTOMYCIN] | 25 µg/mL (≈ 43 µM) | 12.5 µg/mL (≈ 21.5 µM) | 25 µg/mL (≈ 43 µM) | 50 µg/mL (≈ 86 µM) | 12.5 µg/mL (≈ 21.5 µM) |  |  |  |  |  |
